Biological target: T1, human GnRH receptor (Homo sapiens, UniProt P30968)
T1 construct: expressed in transfected cells; host or cells: CHO (Chinese Hamster Ovary) cells; membrane fraction
T1 sequence (P30968 1-328): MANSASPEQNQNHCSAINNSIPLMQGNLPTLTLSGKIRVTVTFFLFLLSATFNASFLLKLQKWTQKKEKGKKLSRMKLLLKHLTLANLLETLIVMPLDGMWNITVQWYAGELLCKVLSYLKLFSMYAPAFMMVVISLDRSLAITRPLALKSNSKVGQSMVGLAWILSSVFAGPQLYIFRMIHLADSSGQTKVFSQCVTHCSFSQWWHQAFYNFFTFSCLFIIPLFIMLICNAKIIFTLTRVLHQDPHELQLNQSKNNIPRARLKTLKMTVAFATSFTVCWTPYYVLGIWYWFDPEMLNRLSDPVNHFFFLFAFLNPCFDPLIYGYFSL
Test: 125I-leuprorelin binding assay (binding inhibitory rate)
Conditions: 10 nM of the testing compound; 800 pM 125I-leuprorelin; 10 μg human GnRH receptor membrane fraction (CHO cells); room temperature 1 hour; read-out: Binding inhibitory ratio (%)
Experimental: 10 μL of a 3×10^−4 M aqueous solution of leuprorelin and 10 μL of 0.01 mg/mL lactoperoxidase were placed in a tube, and 10 μL (37 MBq) of a Na^125I solution was added thereto. After stirring, 10 μL of 0.001% H2O2 was added to allow the mixture to undergo a reaction at room temperature for 20 minutes. 700 μL of a 0.05% TFA solution was added to stop the reaction, and purification by reversed phase HPLC was carried out. The conditions for HPLC are described below. ^125I-leuprorelin was eluted at a retention time of 26 to 27 minutes.
Human GnRH receptor-expressing CHO cells were cultured until the cells were reached a 90% confluent state in a T-150 flask. The cells were separated using 0.02% EDTA-PBS and were centrifuged at 500×g for 5 minutes. A homogenate buffer for cells (10 mM NaHCO3, 1 mM EDTA, 1 mM PMSF, 0.5 μg/mL Pepstatin, 2 μg/mL Leupeptin, pH 7.4) was added to the cell pellet, and the mixture was homogenized with a Polytron homogenizer. After centrifugation of the homogenate at 4° C. and at 1000×g for 10 minutes, the supernatant was placed in an ultracentrifuge tube and was centrifuged at 4° C. and at 49,300×g for 1 hour to obtain a precipitate of a membrane fraction. This precipitate was suspended in an assay buffer (50 mM Tris-HCl, 150 mM NaCl, 5 mM EDTA, pH 7.4) and then dispensed and stored at −80° C., so that the suspension can be thawed every time it is taken for use.
A ^125I-leuprorelin binding assay was carried out using 200 μL of an assay buffer containing 10 μg of human GnRH receptor membrane fraction, 800 pM of ^125I-leuprorelin and 10 nM of the testing compound.
The non-specific binding radioactivity was measured in the presence of 1 μM of non-labeled leuprorelin. After leaving the mixture to stand at room temperature for 1 hour, ^125I-leuprorelin was captured on a GF/C filter (PerkinElmer, Inc.), and the filter was washed with ice-cold 50 mM Tris-HCl (pH 7.4) using a cell harvester. After drying the filter, a liquid scintillation cocktail for microplate was added, and the membrane-bound radioactivity was measured using a TopCount.
The value of (TB-SB)/(TB-NSB)×100 (SB: radioactivity upon addition of the compound, TB: maximum binding radioactivity, NSB: non-specific binding radioactivity) was calculated to determine the binding inhibitory rate in the presence of 10 nM of each testing material.

SMILES	inhibition at 0.01 µM
CC(C)(C)OC(=O)CNC(=O)c1scc2[nH]c(=O)n(-c3cccc(S(=O)(=O)N4CCCc5ccccc54)c3)c(=O)c12 [Example 7 (1), N-({3-[3-(3,4-Dihydroquinolin-1(2H)-ylsulfonyl)phenyl]-2,4-dioxo-1,2,3,4-tetrahydrothieno[3,4-d]pyrimidin-5-yl}carbonyl) glycine tert-butyl ester]	92%
COC(=O)c1scc2[nH]c(=O)n(-c3cc(C(=O)N(c4cccc(C#N)c4Cl)C4CC4)sc3Cl)c(=O)c12 [Example 38, Methyl 3-(2-chloro-5-{[(2-chloro-3-cyanophenyl)(cyclopropyl)amino]carbonyl}-3-thienyl)-2,4-dioxo-1,2,3,4-tetrahydrothieno[3,4-d]pyrimidine-5-carboxylate]	95%
O=c1[nH]c2csc(CO)c2c(=O)n1-c1cc(S(=O)(=O)N2CCCc3ccccc32)cs1 [Example 31, 3-[4-(3,4-Dihydroquinolin-1(2H)-ylsulfonyl)-2-thienyl]-5-(hydroxymethyl)thieno[3,4-d]pyrimidin-2,4(1H,3H)-dione]	100%
O=C(O)c1csc2[nH]c(=O)n(-c3cccc(S(=O)(=O)N4CCCc5ccccc54)c3)c(=O)c12 [Example 34 (3), 3-[3-(3,4-Dihydroquinolin-1(2H)-ylsulfonyl)phenyl]-2,4-dioxo-1,2,3,4-tetrahydrothieno[2,3-d]pyrimidine-5-carboxylic acid]	100%
N#Cc1cccc(N(C(=O)c2cc(-n3c(=O)[nH]c4csc(CO)c4c3=O)c(Cl)s2)C2CC2)c1Cl [Example 39, 5-Chloro-N-(2-chloro-3-cyanophenyl)-N-cyclopropyl-4-[5-(hydroxymethyl)-2,4-dioxo-1,2-dihydrothieno[3,4-d]pyrimidine-3(4H)-yl]thiophene-2-carboxamide]	101%
CC(O)c1scc2[nH]c(=O)n(-c3cccc(S(=O)(=O)N4CCCc5ccccc54)c3)c(=O)c12 (stereo not drawn) [Example 24, 3-[3-(3,4-Dihydroquinolin-1(2H)-ylsulfonyl)phenyl]-5-(1-hydroxyethyl)thieno[3,4-d]pyrimidin-2,4(1H,3H)-dione]	95%
Cc1nnc(-c2scc3[nH]c(=O)n(-c4cccc(S(=O)(=O)N5CCCc6ccccc65)c4)c(=O)c23)o1 [Example 12, 3-[3-(3,4-dihydroquinolin-1(2H)-ylsulfonyl)phenyl]-5-(5-methyl-1,3,4-oxadiazol-2-yl)thieno[3,4-d]pyrimidin-2,4(1H,3H)-dione]	72%
CCN(C(=O)c1csc(-n2c(=O)[nH]c3csc(C(=O)O)c3c2=O)c1)c1ccccc1 [Example 33-2, 3-(4-{[Ethyl(phenyl)amino]carbonyl}-2-thienyl)-2,4-dioxo-1,2,3,4-tetrahydrothieno[3,4-d]pyrimidine-5-carboxylic acid]	85%
N#Cc1cccc(N(C(=O)c2cc(-n3c(=O)[nH]c4csc(C(=O)O)c4c3=O)c(Cl)s2)C2CC2)c1Cl [Example 40, 3-(2-Chloro-5-{[(2-chloro-3-cyanophenyl)(cyclopropyl)amino]carbonyl}-3-thienyl)-2,4-dioxo-1,2,3,4-tetrahydrothieno[3,4-d]pyrimidine-5-carboxylic acid]	101%
COC(=O)c1scc2[nH]c(=O)n(-c3cc(S(=O)(=O)N4CCCc5ccccc54)cs3)c(=O)c12 [Example 30, Methyl 3-[4-(3,4-dihydroquinolin-1(2H)-ylsulfonyl)-2-thienyl]-2,4-dioxo-1,2,3,4-tetrahydrothieno[3,4-d]pyrimidine-5-carboxylate]	110%
O=c1[nH]c2ccsc2c(=O)n1-c1cccc(S(=O)(=O)N2CCCc3ccccc32)c1 [Example 1, 3-[3-(3,4-Dihydroquinolin-1(2H)-ylsulfonyl)phenyl]thieno[3,2-d]pyrimidin-2,4(1H,3H)-dione]	86%
CNC(=O)c1scc2[nH]c(=O)n(-c3cc(S(=O)(=O)N4CCCc5ccccc54)ccc3Cl)c(=O)c12 [Example 16, 3-[2-Chloro-5-(3,4-dihydroquinolin-1(2H)-ylsulfonyl)phenyl]-N-methyl-2,4-dioxo-1,2,3,4-tetrahydrothieno[3,4-d]pyrimidine-5-carboxamide]	96%
O=C(O)c1scc2[nH]c(=O)n(-c3cc(S(=O)(=O)N4CCCCc5sccc54)sc3Cl)c(=O)c12 [Example 6, 3-[2-Chloro-5-(5,6,7,8-tetrahydro-4H-thieno[3,2-b]azepin-4-ylsulfonyl)-3-thienyl]-2,4-dioxo-1,2,3,4-tetrahydrothieno[3,4-d]pyrimidine-5-carboxylic acid]	97%
COC(=O)c1scc2[nH]c(=O)n(-c3cc(C(=O)N(c4cccc(Br)c4Cl)C4CC4)sc3Cl)c(=O)c12 [Example 37, Methyl 3-(5-{[(3-bromo-2-chlorophenyl)(cyclopropyl)amino]carbonyl}-2-chloro-3-thienyl)-2,4-dioxo-1,2,3,4-tetrahydrothieno[3,4-d]pyrimidine-5-carboxylate]	100%
N#Cc1cccc(N(C(=O)c2cc(-n3c(=O)[nH]c4csc(C(N)=O)c4c3=O)c(Cl)s2)C2CC2)c1Cl [Example 41, 3-(2-Chloro-5-{[(2-chloro-3-cyanophenyl)(cyclopropyl)amino]carbonyl}-3-thienyl)-2,4-dioxo-1,2,3,4-tetrahydrothieno[3,4-d]pyrimidine-5-carboxamide]	100%

From patent US20090062258A1, “FUSED PYRIMIDINE DERIVATIVE AND USE THEREOF” (Takeda Pharmaceutical Company Limited, priority 2005, published 2009)
